Test results as given in article PMC8185074, “Anchor extension: a structure-guided approach to design cyclic peptides targeting enzyme active sites” (Nature Communications, 2021).
Peptide text beside a SMILES is read from it.

Experiments:
HDAC2 = biological target: T1, HDAC2 (Homo sapiens, UniProt Q92769); experiment: HDAC2 inhibition, full IC50 measurement (Reaction Biology; fluorogenic p53 peptide RHKK(Ac)AMC); format: biochemical
T1 construct: purchased Reaction Biology Corporation (assay run by the CRO)
Protocol: (§1) The assay was performed using 50 μM fluorogenic peptide from p53 residues 379-382 [RHKK(Ac)AMC] in a base reaction buffer of 50 mM Tris-HCl at pH 8.0, 137 mM NaCl, 2.7 mM KCl, 1 mM MgCl2, and freshly added 1 mg/ml BSA and 1% DMSO. Peptides were first dissolved in DMSO and then added to the reaction mixture with the enzyme using acoustic technique, enough to reach the desired concentration for that assay point. Peptide concentrations were calculated based on mass of lyophilized peptide and its molecular weight. The substrate was then added and incubated for 1 hour at 30 °C in a sealed container. After the incubation, developer was added to stop the reaction and develop color. Kinetic measurements were then performed for 20 min with Envision with 5 min intervals (Ex/Em = 360/460 nm). The endpoint after plateau was taken for IC50 measurement.
(§2) In cases where duplicate measures are used, average data is reported in the main text or Supplementary Tables.

HDAC6 = biological target: T2, HDAC6 (Homo sapiens, UniProt Q9UBN7); experiment: HDAC6 inhibition, full IC50 measurement (Reaction Biology; fluorogenic p53 peptide RHKK(Ac)AMC); format: biochemical
T2 construct: purchased Reaction Biology Corporation (assay run by the CRO)
T2 sequence (Q9UBN7 1-1215): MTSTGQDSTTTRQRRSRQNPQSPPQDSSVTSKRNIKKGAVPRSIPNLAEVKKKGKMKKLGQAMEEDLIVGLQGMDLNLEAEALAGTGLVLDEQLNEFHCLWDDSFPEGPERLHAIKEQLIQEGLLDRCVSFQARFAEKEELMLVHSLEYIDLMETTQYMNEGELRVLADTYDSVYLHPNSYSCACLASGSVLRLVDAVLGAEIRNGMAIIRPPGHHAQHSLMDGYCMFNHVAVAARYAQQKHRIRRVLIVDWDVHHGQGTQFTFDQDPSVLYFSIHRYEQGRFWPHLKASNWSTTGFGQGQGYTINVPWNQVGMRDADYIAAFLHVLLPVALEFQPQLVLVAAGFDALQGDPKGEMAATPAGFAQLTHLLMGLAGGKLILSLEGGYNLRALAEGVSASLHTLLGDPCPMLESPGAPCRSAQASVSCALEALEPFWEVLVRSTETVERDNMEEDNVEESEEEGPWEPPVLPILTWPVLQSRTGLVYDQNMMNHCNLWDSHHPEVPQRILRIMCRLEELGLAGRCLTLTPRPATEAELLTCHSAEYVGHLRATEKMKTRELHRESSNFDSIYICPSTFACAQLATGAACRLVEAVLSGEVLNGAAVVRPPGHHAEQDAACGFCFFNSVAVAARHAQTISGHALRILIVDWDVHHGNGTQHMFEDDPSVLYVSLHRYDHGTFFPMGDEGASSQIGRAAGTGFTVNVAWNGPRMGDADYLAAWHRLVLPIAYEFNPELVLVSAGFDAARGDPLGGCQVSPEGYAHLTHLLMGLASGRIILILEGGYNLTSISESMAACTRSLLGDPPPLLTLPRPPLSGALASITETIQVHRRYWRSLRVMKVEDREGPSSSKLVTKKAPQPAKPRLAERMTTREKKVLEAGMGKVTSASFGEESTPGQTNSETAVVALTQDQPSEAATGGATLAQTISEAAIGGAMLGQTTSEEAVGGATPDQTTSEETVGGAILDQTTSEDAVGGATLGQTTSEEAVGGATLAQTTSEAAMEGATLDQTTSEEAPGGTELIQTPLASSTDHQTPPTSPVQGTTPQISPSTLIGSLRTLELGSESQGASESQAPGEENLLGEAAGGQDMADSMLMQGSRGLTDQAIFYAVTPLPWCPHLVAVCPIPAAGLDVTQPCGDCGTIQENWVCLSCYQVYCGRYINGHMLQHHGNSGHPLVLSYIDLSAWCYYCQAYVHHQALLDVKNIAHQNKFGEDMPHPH
Protocol: as §1, §2

T1 sequence (Q92769 whole entry): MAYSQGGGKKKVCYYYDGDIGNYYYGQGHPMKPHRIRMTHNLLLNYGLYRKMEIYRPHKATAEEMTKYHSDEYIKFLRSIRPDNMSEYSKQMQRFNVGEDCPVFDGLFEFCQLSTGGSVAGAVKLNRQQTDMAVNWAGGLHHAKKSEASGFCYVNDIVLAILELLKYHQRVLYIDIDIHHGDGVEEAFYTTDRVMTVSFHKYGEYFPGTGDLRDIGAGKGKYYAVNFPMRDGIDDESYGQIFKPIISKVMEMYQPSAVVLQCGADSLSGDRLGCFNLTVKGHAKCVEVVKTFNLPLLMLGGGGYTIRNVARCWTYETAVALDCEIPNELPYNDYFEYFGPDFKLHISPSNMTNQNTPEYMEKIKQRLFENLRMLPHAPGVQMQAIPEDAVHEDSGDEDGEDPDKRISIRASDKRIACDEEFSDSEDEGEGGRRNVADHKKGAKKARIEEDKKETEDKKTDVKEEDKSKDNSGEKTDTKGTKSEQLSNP

CCCC[C@H]1NC(=O)[C@H](CC(=O)O)NC(=O)[C@@H](CO)NC(=O)[C@@H](C)NC(=O)[C@H](CCCCN)NC(=O)[C@@H](CCCCN)NC(=O)[C@H](Cc2ccccc2)NC(=O)[C@H](CCCCCS)NC1=O [des4.3.1.2, SHA-Phe-dLys-Lys-dAla-dSer-Asp-dNle] (HELM PEPTIDE1{D.[CCCC[C@@H](N[*:1])C(=O)[*:2]].[O=C([C@H](CCCCCS)N[*:1])[*:2]].F.[dK].K.[dA].[dS]}$PEPTIDE1,PEPTIDE1,1:R1-8:R2$$$V2.0)
HDAC2 activity raw data (signal) (HDAC2; Conc. 1.00E-05 M, t1): 1148842
HDAC2 activity raw data (signal) (HDAC2; Conc. 1.00E-05 M, t2): 1124925
HDAC2 activity raw data (signal) (HDAC2; Conc. 1.11E-06 M, t1): 1654730
HDAC2 activity raw data (signal) (HDAC2; Conc. 1.11E-06 M, t2): 1704574
HDAC2 activity raw data (signal) (HDAC2; Conc. 1.23E-07 M, t1): 1694685
HDAC2 activity raw data (signal) (HDAC2; Conc. 1.23E-07 M, t2): 1708262
HDAC2 activity raw data (signal) (HDAC2; Conc. 1.37E-08 M, t1): 1883329
HDAC2 activity raw data (signal) (HDAC2; Conc. 1.37E-08 M, t2): 1685214
HDAC2 activity raw data (signal) (HDAC2; Conc. 1.52E-09 M, t1): 1920222
HDAC2 activity raw data (signal) (HDAC2; Conc. 1.52E-09 M, t2): 1770203
HDAC2 activity raw data (signal) (HDAC2; Conc. 3.33E-06 M, t1): 1489645
HDAC2 activity raw data (signal) (HDAC2; Conc. 3.33E-06 M, t2): 1397108
HDAC2 activity raw data (signal) (HDAC2; Conc. 3.70E-07 M, t1): 1733657
HDAC2 activity raw data (signal) (HDAC2; Conc. 3.70E-07 M, t2): 1639218
HDAC2 activity raw data (signal) (HDAC2; Conc. 4.12E-08 M, t1): 1743081
HDAC2 activity raw data (signal) (HDAC2; Conc. 4.12E-08 M, t2): 1732768
HDAC2 activity raw data (signal) (HDAC2; Conc. 4.57E-09 M, t1): 1828637
HDAC2 activity raw data (signal) (HDAC2; Conc. 4.57E-09 M, t2): 1698186
HDAC2 activity raw data (signal) (HDAC2; Conc. 5.08E-10 M, t1): 1916889
HDAC2 activity raw data (signal) (HDAC2; Conc. 5.08E-10 M, t2): 1862597
6-Selectivity: fold potency for HDAC6 over HDAC2 (HDAC6): > 100 fold
HDAC6 activity raw data (signal) (HDAC6; Conc. 1.00E-05 M, t1): 342990
HDAC6 activity raw data (signal) (HDAC6; Conc. 1.00E-05 M, t2): 304678
HDAC6 activity raw data (signal) (HDAC6; Conc. 1.11E-06 M, t1): 1091316
HDAC6 activity raw data (signal) (HDAC6; Conc. 1.11E-06 M, t2): 1078978
HDAC6 activity raw data (signal) (HDAC6; Conc. 1.23E-07 M, t1): 1593999
HDAC6 activity raw data (signal) (HDAC6; Conc. 1.23E-07 M, t2): 1556041
HDAC6 activity raw data (signal) (HDAC6; Conc. 1.37E-08 M, t1): 1690122
HDAC6 activity raw data (signal) (HDAC6; Conc. 1.37E-08 M, t2): 1641196
HDAC6 activity raw data (signal) (HDAC6; Conc. 1.52E-09 M, t1): 1700998
HDAC6 activity raw data (signal) (HDAC6; Conc. 1.52E-09 M, t2): 1770848
HDAC6 activity raw data (signal) (HDAC6; Conc. 3.33E-06 M, t1): 689811
HDAC6 activity raw data (signal) (HDAC6; Conc. 3.33E-06 M, t2): 662211
HDAC6 activity raw data (signal) (HDAC6; Conc. 3.70E-07 M, t1): 1440305
HDAC6 activity raw data (signal) (HDAC6; Conc. 3.70E-07 M, t2): 1367836
HDAC6 activity raw data (signal) (HDAC6; Conc. 4.12E-08 M, t1): 1630143
HDAC6 activity raw data (signal) (HDAC6; Conc. 4.12E-08 M, t2): 1649164
HDAC6 activity raw data (signal) (HDAC6; Conc. 4.57E-09 M, t1): 1710532
HDAC6 activity raw data (signal) (HDAC6; Conc. 4.57E-09 M, t2): 1671153
HDAC6 activity raw data (signal) (HDAC6; Conc. 5.08E-10 M, t1): 1797804
HDAC6 activity raw data (signal) (HDAC6; Conc. 5.08E-10 M, t2): 1739375

CCCC[C@H]1NC(=O)[C@H](Cc2ccccc2)NC(=O)[C@H](CCCCCS)NC(=O)[C@@H](CCCNC(=N)N)NC(=O)[C@H](C)NC(=O)[C@@H](CO)NC(=O)[C@@H](C)NC(=O)[C@H](CCCCN)NC1=O [des4.3.1.3, SHA-Phe-dNle-Lys-dAla-dSer-Ala-dArg] (HELM PEPTIDE1{A.[dR].[O=C([C@H](CCCCCS)N[*:1])[*:2]].F.[CCCC[C@@H](N[*:1])C(=O)[*:2]].K.[dA].[dS]}$PEPTIDE1,PEPTIDE1,1:R1-8:R2$$$V2.0)
HDAC2 activity raw data (signal) (HDAC2; Conc. 1.00E-05 M, t1): 193929
HDAC2 activity raw data (signal) (HDAC2; Conc. 1.00E-05 M, t2): 207672
HDAC2 activity raw data (signal) (HDAC2; Conc. 1.11E-06 M, t1): 922315
HDAC2 activity raw data (signal) (HDAC2; Conc. 1.11E-06 M, t2): 983057
HDAC2 activity raw data (signal) (HDAC2; Conc. 1.23E-07 M, t1): 1473586
HDAC2 activity raw data (signal) (HDAC2; Conc. 1.23E-07 M, t2): 1600746
HDAC2 activity raw data (signal) (HDAC2; Conc. 1.37E-08 M, t1): 1736023
HDAC2 activity raw data (signal) (HDAC2; Conc. 1.37E-08 M, t2): 1721378
HDAC2 activity raw data (signal) (HDAC2; Conc. 1.52E-09 M, t1): 1807312
HDAC2 activity raw data (signal) (HDAC2; Conc. 1.52E-09 M, t2): 1809308
HDAC2 activity raw data (signal) (HDAC2; Conc. 3.33E-06 M, t1): 507679
HDAC2 activity raw data (signal) (HDAC2; Conc. 3.33E-06 M, t2): 555133
HDAC2 activity raw data (signal) (HDAC2; Conc. 3.70E-07 M, t1): 1323328
HDAC2 activity raw data (signal) (HDAC2; Conc. 3.70E-07 M, t2): 1396903
HDAC2 activity raw data (signal) (HDAC2; Conc. 4.12E-08 M, t1): 1569368
HDAC2 activity raw data (signal) (HDAC2; Conc. 4.12E-08 M, t2): 1738468
HDAC2 activity raw data (signal) (HDAC2; Conc. 4.57E-09 M, t1): 1706591
HDAC2 activity raw data (signal) (HDAC2; Conc. 4.57E-09 M, t2): 1632561
HDAC2 activity raw data (signal) (HDAC2; Conc. 5.08E-10 M, t1): 1698338
HDAC2 activity raw data (signal) (HDAC2; Conc. 5.08E-10 M, t2): 1730008
6-Selectivity: fold potency for HDAC6 over HDAC2 (HDAC6): 140 fold
HDAC6 activity raw data (signal) (HDAC6; Conc. 1.00E-05 M, t1): -1435
HDAC6 activity raw data (signal) (HDAC6; Conc. 1.00E-05 M, t2): 8169
HDAC6 activity raw data (signal) (HDAC6; Conc. 1.11E-06 M, t1): 31133
HDAC6 activity raw data (signal) (HDAC6; Conc. 1.11E-06 M, t2): 32571
HDAC6 activity raw data (signal) (HDAC6; Conc. 1.23E-07 M, t1): 145819
HDAC6 activity raw data (signal) (HDAC6; Conc. 1.23E-07 M, t2): 156860
HDAC6 activity raw data (signal) (HDAC6; Conc. 1.37E-08 M, t1): 703698
HDAC6 activity raw data (signal) (HDAC6; Conc. 1.37E-08 M, t2): 730719
HDAC6 activity raw data (signal) (HDAC6; Conc. 1.52E-09 M, t1): 1278425
HDAC6 activity raw data (signal) (HDAC6; Conc. 1.52E-09 M, t2): 1354635
HDAC6 activity raw data (signal) (HDAC6; Conc. 3.33E-06 M, t1): -1405
HDAC6 activity raw data (signal) (HDAC6; Conc. 3.33E-06 M, t2): 24989
HDAC6 activity raw data (signal) (HDAC6; Conc. 3.70E-07 M, t1): 60632
HDAC6 activity raw data (signal) (HDAC6; Conc. 3.70E-07 M, t2): 66340
HDAC6 activity raw data (signal) (HDAC6; Conc. 4.12E-08 M, t1): 363100
HDAC6 activity raw data (signal) (HDAC6; Conc. 4.12E-08 M, t2): 336992
HDAC6 activity raw data (signal) (HDAC6; Conc. 4.57E-09 M, t1): 1071704
HDAC6 activity raw data (signal) (HDAC6; Conc. 4.57E-09 M, t2): 1051810
HDAC6 activity raw data (signal) (HDAC6; Conc. 5.08E-10 M, t1): 1597632
HDAC6 activity raw data (signal) (HDAC6; Conc. 5.08E-10 M, t2): 1554939
